This passage reports IC50 and inhibition results from ChEMBL document CHEMBL4811252, “Identification of novel 1,3-diaryl-1,2,4-triazole-capped histone deacetylase 6 inhibitors with potential anti-gastric cancer activity” (Eur J Med Chem, 2021).

Experiment [1] has as its target T1, Protein deacetylase HDAC6 (Homo sapiens, UniProt Q9UBN7).
T1 sequence (Q9UBN7 whole entry): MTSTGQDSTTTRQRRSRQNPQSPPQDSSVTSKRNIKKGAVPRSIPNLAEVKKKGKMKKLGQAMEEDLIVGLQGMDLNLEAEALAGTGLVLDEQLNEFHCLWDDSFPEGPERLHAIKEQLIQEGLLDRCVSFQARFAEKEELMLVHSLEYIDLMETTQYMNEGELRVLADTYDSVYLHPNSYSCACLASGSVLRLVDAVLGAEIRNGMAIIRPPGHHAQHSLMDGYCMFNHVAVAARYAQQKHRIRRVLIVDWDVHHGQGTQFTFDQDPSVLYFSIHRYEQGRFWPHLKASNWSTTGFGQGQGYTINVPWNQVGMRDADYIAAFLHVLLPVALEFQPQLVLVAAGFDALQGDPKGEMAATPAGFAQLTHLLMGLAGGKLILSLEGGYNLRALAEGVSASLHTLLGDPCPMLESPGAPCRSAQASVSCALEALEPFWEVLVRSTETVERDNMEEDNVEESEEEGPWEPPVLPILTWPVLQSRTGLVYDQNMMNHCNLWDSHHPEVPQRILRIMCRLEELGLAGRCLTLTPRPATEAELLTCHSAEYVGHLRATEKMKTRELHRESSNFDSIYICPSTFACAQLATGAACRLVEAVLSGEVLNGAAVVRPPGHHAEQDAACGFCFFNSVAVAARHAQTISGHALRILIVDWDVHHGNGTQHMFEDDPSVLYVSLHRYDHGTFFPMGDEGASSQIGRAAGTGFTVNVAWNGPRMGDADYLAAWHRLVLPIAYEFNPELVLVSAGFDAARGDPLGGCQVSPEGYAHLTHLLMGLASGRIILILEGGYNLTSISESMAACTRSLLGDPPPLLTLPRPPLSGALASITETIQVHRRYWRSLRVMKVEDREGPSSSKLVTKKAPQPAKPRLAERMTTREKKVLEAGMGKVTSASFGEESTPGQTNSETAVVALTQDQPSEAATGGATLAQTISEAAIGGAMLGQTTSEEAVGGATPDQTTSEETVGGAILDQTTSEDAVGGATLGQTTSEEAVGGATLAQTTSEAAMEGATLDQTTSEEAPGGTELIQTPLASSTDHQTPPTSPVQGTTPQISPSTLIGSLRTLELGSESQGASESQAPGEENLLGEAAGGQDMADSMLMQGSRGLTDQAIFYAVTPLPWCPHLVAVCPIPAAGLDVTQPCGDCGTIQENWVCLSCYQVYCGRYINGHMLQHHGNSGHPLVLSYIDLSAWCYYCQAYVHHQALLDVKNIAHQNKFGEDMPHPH
The experiment can be described thus: Inhibition of recombinant full length human HDAC6 expressed in baculovirus infected Sf9 cells using Z-(Ac)-Lys-AMC as substrate incubated for 40 mins by fluorescence based assay.

Experiment [2] concerns the target T2, Histone deacetylase 1 (Homo sapiens, UniProt Q13547). The experiment can be described thus: Inhibition of recombinant human HDAC1 using Z-(Ac)-Lys-AMC as substrate incubated for 40 mins by fluorescence based assay.
Experiment [3] deals with MGC-803. The experiment can be described thus: Antiproliferative activity against human MGC803 cells incubated for 72 hrs by MTT assay. The class given is functional, cell-based. Conditions: MGC-803, 72 h.
Experiment [4] concerns the target T3, Protein deacetylase HDAC6 (Homo sapiens) (UniProt Q9UBN7).
T3 sequence (whole entry): T1 sequence (Q9UBN7 whole entry)
Conditions: Sf9, dose 100.0 nM, time 40.0 min.

In experiment [5] the target is T2, Histone deacetylase 1. Conditions: dose 100.0 nM, time 40.0 min.

Each structure is given as a SMILES string.

What is called IC50 is the concentration needed to halve the response being measured. By inhibition is commonly meant how much of the control response was suppressed. The low end stands for little suppression, the high end for strong suppression.

T2 sequence (Q13547 whole entry): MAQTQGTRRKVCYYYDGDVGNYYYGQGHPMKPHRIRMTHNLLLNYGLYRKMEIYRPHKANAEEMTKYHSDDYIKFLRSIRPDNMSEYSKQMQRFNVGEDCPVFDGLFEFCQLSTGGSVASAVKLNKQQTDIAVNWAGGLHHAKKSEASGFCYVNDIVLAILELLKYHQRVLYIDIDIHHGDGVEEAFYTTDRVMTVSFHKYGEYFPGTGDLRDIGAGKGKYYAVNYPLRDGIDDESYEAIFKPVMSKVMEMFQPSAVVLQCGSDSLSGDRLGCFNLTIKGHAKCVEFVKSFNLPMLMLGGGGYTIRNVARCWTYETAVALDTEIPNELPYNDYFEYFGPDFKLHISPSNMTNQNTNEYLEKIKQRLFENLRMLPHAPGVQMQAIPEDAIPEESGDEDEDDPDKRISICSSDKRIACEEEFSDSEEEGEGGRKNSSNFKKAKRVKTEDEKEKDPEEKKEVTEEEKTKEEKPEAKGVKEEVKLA

Turning to `O=C(NO)c1ccc(NCc2nc(-c3ccccc3)nn2-c2cccc(Cl)c2)cc1`, the IC50 is 678 nM in experiment [1], 4400 nM in experiment [2] and 13700 nM in experiment [3]. In addition, the inhibition in experiment [4] is 62.3%; in experiment [5], 14.7%.
As for `Cc1ccsc1-c1nc(CNc2ccc(C(=O)NO)cc2)n(-c2ccccc2)n1`, the figures for the IC50 in experiment [1], in experiment [2] and in experiment [3] were 30.7 nM, 3200 nM and 8890 nM, respectively. The inhibition turned out to be 72.1% in experiment [4] and 26.3% in experiment [5].
In the same order, the values of `O=C(NO)c1ccc(NCc2nc(-c3ccccc3)nn2-c2ccc(F)cc2)cc1` are 274 nM, 1820 nM, 10500 nM, 67.6% and 16.3%.
In the same order, the values of `Cc1ccc(-c2nc(CNc3ccc(C(=O)NO)cc3)n(-c3ccccc3)n2)cc1` are 224 nM, 3100 nM, more than 20000 nM, 62.2% and 20.3%.
As to `COc1ccc(-n2nc(-c3ccccc3)nc2CNc2ccc(C(=O)NO)cc2)cc1`, the IC50 in experiment [1] is 127 nM; in experiment [2], 883 nM; in experiment [3] it was 7050 nM. The inhibition in experiment [4] came to 63.4%; in experiment [5] it was 26.2%.
With `COc1ccc(-c2nc(CNc3ccc(C(=O)NO)cc3)n(-c3ccccc3)n2)cc1`, the IC50 in experiment [1] was 163 nM; in experiment [2] it was 2860 nM; in experiment [3] it was more than 20000 nM. Also, the figures for the inhibition in experiment [4] and in experiment [5] were 77.6% and 33.4%, respectively.
In the same order, the values of `O=C(NO)c1ccc(NCc2nc(-c3ccc(Cl)cc3)nn2-c2ccccc2)cc1` are 181 nM, 2420 nM, 5970 nM, 67.2% and 19.5%.
Consider `COc1ccc(-n2nc(-c3ccc(O)cc3)nc2CNc2ccc(C(=O)NO)cc2)cc1`, for which the IC50 was 102 nM in experiment [1], 4300 nM in experiment [2] and more than 20000 nM in experiment [3]. The inhibition in experiment [4] was 70.3%; in experiment [5] it was 25.9%.
